Measured values as given in PMC3828397, “Characterization of PfTrxR inhibitors using antimalarial assays and in silico techniques” (Chemistry Central Journal, 2013).
Where two headings read alike, the source gives them in different places.

Key:
[1] = system: P. falciparum chloroquine resistant (W2, IndoChina) strain; assay: In vitro antimalarial assay (SYBR green), W2 strain; format: cell-based, Plasmodium falciparum
PfTrxR = conditions: read-out: Pf TrxR IC50; cited from earlier work
[2] = system: P. falciparum chloroquine sensitive (D6, Sierra Leone) strain; assay: In vitro antimalarial assay (SYBR green), D6 strain; format: cell-based, Plasmodium falciparum
Human erythrocytes = assay: ROS assay in DCFDA loaded erythrocytes; format: cell-based
3T3 cells = assay: Cytotoxicity assay (AlamarBlue); format: cell-based
[3] = system: P. falciparum CQ-sensitive (D6) and CQ-resistant (W2) strains; assay: In vitro antimalarial assay, statements covering both strains; format: cell-based, Plasmodium falciparum; conditions: for IC50: Plasmodium falciparum, strain not given, read-out: antimalarial activity IC50 (abstract)
hTrxR = conditions: read-out: Exptl. IC50, hTrxR; cited from earlier work
[4] = Plasmodium falciparum, W2, W2 clone, mean ± S.D. of triplicate observations, read-out: Pf (W2) CQ resistance IC50
[5] = Plasmodium falciparum, D6 clone, mean ± S.D. of triplicate observations, read-out: Pf (D6) CQ sensitive IC50
[6] = test compounds 50 μM, DCFDA fluorescence monitored for 120 min
[7] = Mus musculus, NIH3T3, 3T3 cells, AlamarBlue, NC: no cytotoxicity up to concentration much higher than the antiplasmodial concentration, read-out: 3T3 IC50
[8] = against the two strains of P. falciparum
[9] = Plasmodium falciparum, W2, read-out: Pf (W2) CQ resistance IC50
[10] = Plasmodium falciparum, D6, read-out: Pf (D6) CQ sensitive IC50

| Molecule | IC50 [1, 4] [µM] | IC50 (PfTrxR) [µM] | IC50 [2, 5] [µM] | intraerythrocytic formation of ROS (oxidative stress) (Human erythrocytes; [6]) | IC50 (3T3 cells; [7]) [µM] | IC50 [3] [µM] | antimalarial activity in words [3, 8] | IC50 ([2]; read-out: Pf (D6) CQ sensitive IC50) [µM] | intraerythrocytic formation of ROS (oxidative stress) (Human erythrocytes) | IC50 (3T3 cells; read-out: 3T3 IC50) [µM] | IC50 (hTrxR) [µM] | antimalarial activity in words [3] | IC50 ([1]; W2 clone, mean ± S.D. of triplicate observations, read-out: Pf (W2) CQ resistance IC50) [µM] | IC50 [1, 9] [µM] | IC50 [2, 10] [µM] | IC50 (3T3 cells; Mus musculus, NIH3T3, read-out: 3T3 IC50) [µM] |
| --- | --- | --- | --- | --- | --- | --- | --- | --- | --- | --- | --- | --- | --- | --- | --- | --- |
| CC1=CC(=O)c2ccccc2C1=O [MD, menadione] | 28.3 ± 5.6 | 1.6 | 18.5 ± 1.9 | significant increase | 70.5 ± 3.69 | < 20 | moderately active | – | – | – | – | – | – | – | – | – |
| 4-nitrobenzothiadiazole [4-NBT] | – | 2 | – | – | – | – | – | 8.3 ± 2.1 | significant increase | 80 ± 1.15 | 50 | most active | – | – | – | – |
| O=C1C=CC(=O)c2ccccc21 [1,4-NQ, 1,4-napthoquinone] | < 20 | 0.75 | 8.9 ± 2.3 | significant increase | 38.5 ± 0.76 | < 20 | most active | – | – | – | – | – | 16.7 ± 3.7 | – | – | – |
| CCN(CC)CCCC(C)Nc1ccnc2cc(Cl)ccc12 (centres unmarked) [CQ, chloroquine] | – | – | – | – | – | – | – | – | – | – | – | – | – | 0.44 ± 0.045 | 0.055 ± 0.006 | – |
| CN(C)CCC(=O)c1ccccc1 [3-DAP, 3-dimethylaminopropiophenone] | – | 15.4 | – | – | – | – | inactive | – | did not cause the production of ROS | – | – | – | – | > 100 | > 100 | > 100 |
